Our source for the Ki values is ChEMBL document CHEMBL1138443, “Carbonic anhydrase inhibitors. Cloning, characterization, and inhibition studies of a new beta-carbonic anhydrase from Mycobacterium tuberculosis” (J Med Chem, 2009).

In this test the target is T1, Beta-carbonic anhydrase 1 (Mycobacterium tuberculosis, UniProt P9WPJ7).
T1 sequence (P9WPJ7 whole entry): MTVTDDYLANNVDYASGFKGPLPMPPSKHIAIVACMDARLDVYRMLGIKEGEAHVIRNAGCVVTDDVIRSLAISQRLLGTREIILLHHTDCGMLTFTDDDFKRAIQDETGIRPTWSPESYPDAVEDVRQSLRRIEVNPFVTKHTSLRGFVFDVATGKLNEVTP

The compound `CC(=O)/N=c1/sc(S(N)(=O)=O)nn1C` [METHAZOLAMIDE] came in with an inhibitory constant (Ki) of 781 nM.
